Reference: the supplement of paper PMC10307832

What was measured:
Assay in all cases: relative viability (nuclei count vs DMSO), 5 days (fraction); higher = more cells survive
[1] = compound: CN1CCN(CC1)C2=CC(=C(C=C2)NC3=NC=C4C(=N3)N(C5=CC=CC=C5C(=O)N4C)C)OC [XMD8-85] + CC(C)C[C@H](NC(=O)[C@H](Cc1ccccc1)NC(=O)c1cnccn1)B(O)O [Bortezomib] (partner 0.002 µM)
In short: (§1)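 Lung cancer cell lines in 1536-well plates were dosed by pin tool the day after seeding, either with one drug alone or with a fixed anchor-drug dose plus five library-drug doses (not always all listed) in √10 steps. After 5 days, cells were fixed and their nuclei stained in one step (final 0.05% Triton X-100, 1% formaldehyde, 1 ug/ml Hoechst), then counted on 4× images. Relative viability is the nuclei count in treated wells divided by that in vehicle wells. Values are medians of duplicate plates.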

[2] = compound: O=C(O)C(Cc1ccccc1[N+](=O)[O-])=NNc1nc(-c2ccc(Cl)c(Cl)c2)cs1 (mixture of isomers) [4EGI-1] + N=C(N)NC(=N)NCCc1ccccc1 [Phenformin] (partner 250 µM)
In short: as §1

[3] = compound: CN1CCN(CC1)C2=CC(=C(C=C2)NC3=NC=C4C(=N3)N(C5=CC=CC=C5C(=O)N4C)C)OC [XMD8-85] + O=C(CCCCCCC(=O)Nc1ccccc1)NO [Vorinostat] (partner 1 µM)
In short: as §1

[4] = compound: O=C(O)C(Cc1ccccc1[N+](=O)[O-])=NNc1nc(-c2ccc(Cl)c(Cl)c2)cs1 (mixture of isomers) [4EGI-1] + NC(=O)Nc1cc(-c2cccc(F)c2)sc1C(=O)N[C@H]1CCCNC1 [AZD7762] (partner 0.2 µM)
In short: as §1

Cell Line | relative viability ([1]; first compound 0.08 µM) | relative viability ([1]; first compound 0.253 µM) | relative viability ([1]; first compound 0.8 µM) | relative viability ([1]; first compound 2.53 µM) | relative viability ([2]; first compound 0.5 µM) | relative viability ([2]; first compound 5 µM) | relative viability ([2]; first compound 15.81 µM) | relative viability ([2]; first compound 50 µM) | relative viability ([3]; first compound 0.08 µM) | relative viability ([3]; first compound 0.8 µM) | relative viability ([3]; first compound 2.53 µM) | relative viability ([3]; first compound 8 µM) | relative viability ([4]; first compound 0.5 µM) | relative viability ([4]; first compound 1.581 µM) | relative viability ([4]; first compound 5 µM) | relative viability ([4]; first compound 15.81 µM) | relative viability ([4]; first compound 50 µM) | relative viability ([1]; first compound 8 µM) | relative viability ([2]; first compound 1.581 µM) | relative viability ([3]; first compound 0.253 µM)
LC-2-ad | 1.04 | 0.976 | 0.99 | 0.921 | 0.601 | 0.649 | 0.342 | 0.265 | 0.739 | 0.702 | 0.691 | 0.434 | 0.855 | 0.866 | 0.917 | 0.3 | 0.208 | – | – | –
LCLC-97TM1 | 0.473 | 0.357 | 0.841 | 0.72 | 0.456 | 0.437 | 0.404 | 0.375 | 0.786 | 0.915 | 0.784 | 0.259 | 0.242 | – | 0.362 | 0.41 | 0.0881 | 0.204 | 0.343 | 0.823
NCI-H460 | 0.924 | 0.999 | 1.2 | 0.956 | 0.549 | 0.593 | 0.243 | 0.0399 | 0.53 | 0.672 | 0.766 | 0.146 | 0.572 | – | 0.705 | 0.24 | 0.302 | 0.75 | – | 0.786
HCC-827 | 1.16 | 1.1 | 1.05 | 0.978 | 0.403 | 0.396 | – | 0.353 | 0.909 | 0.802 | 0.959 | 0.773 | 0.255 | 0.217 | 0.211 | – | 0.139 | 1.02 | 0.394 | 0.824
201T | 1.08 | 1.06 | 1.1 | 1.07 | 0.456 | 0.427 | 0.45 | 0.428 | 1.01 | 0.961 | 0.978 | 0.741 | 0.797 | 0.514 | 0.736 | 0.619 | 0.495 | 0.917 | 0.475 | 1.03
NCI-H1755 | 0.97 | 1.14 | 0.918 | 1.06 | 0.699 | 0.646 | 0.625 | 0.397 | 0.8 | 0.695 | 0.761 | 0.692 | 0.441 | 0.411 | 0.457 | 0.344 | 0.252 | 0.806 | 0.636 | 0.799
NCI-H1666 | 0.831 | 0.754 | 0.745 | 0.735 | 0.537 | 0.563 | 0.51 | 0.398 | 1.13 | 0.996 | 0.947 | 0.92 | 0.81 | 0.68 | 0.757 | 0.497 | 0.341 | – | 0.554 | 1.03
LCLC-103H | 1.07 | 1.23 | 1.03 | 1.05 | 0.337 | 0.34 | 0.354 | 0.287 | 0.799 | 0.784 | 0.801 | 0.585 | 0.868 | 0.727 | 0.788 | 0.756 | 0.446 | 1.01 | 0.349 | 0.77
NCI-H1734 | 0.808 | 0.936 | 0.917 | 1.03 | 0.477 | 0.43 | 0.352 | 0.256 | 0.788 | 0.826 | 0.768 | 0.56 | 0.596 | 0.455 | 0.573 | 0.32 | 0.178 | 0.649 | 0.341 | 0.84
HOP-62 | 0.646 | 0.698 | 0.863 | 0.719 | 0.677 | 0.73 | 0.667 | 0.537 | 0.605 | 0.622 | 0.598 | 0.231 | 0.878 | 0.408 | 0.54 | 0.454 | 0.101 | 0.681 | 0.446 | 0.673
HCC-15 | 0.948 | 1 | 1.14 | 1.15 | 0.494 | 0.473 | 0.47 | 0.161 | 0.896 | 0.806 | 0.792 | 0.586 | 1.21 | 1.12 | 1.26 | 1.17 | 1.28 | 0.926 | – | 0.819
NCI-H2405 | 1.01 | 0.983 | 0.975 | 1.02 | 0.419 | 0.421 | 0.409 | 0.409 | 0.993 | 1.08 | 1.06 | 0.549 | 0.746 | – | 0.851 | 0.692 | 0.285 | 0.927 | 0.338 | 0.992
NCI-H1703 | 0.28 | 0.267 | 0.306 | 0.345 | – | – | – | – | – | – | – | – | 0.121 | 0.131 | 0.147 | 0.12 | 0.119 | 0.196 | – | –
NCI-H2342 | – | – | – | – | 0.582 | 0.716 | 0.641 | 0.522 | 0.767 | 0.72 | 0.927 | 0.991 | 0.441 | 0.477 | 0.501 | 0.559 | 0.308 | – | 0.588 | 0.75
NCI-H358 | – | – | – | – | 0.311 | 0.343 | 0.215 | 0.111 | – | 0.71 | 0.619 | 0.261 | 0.632 | – | 0.582 | 0.275 | 0.218 | – | 0.297 | 0.635
NCI-H1395 | – | – | – | – | 0.455 | 0.508 | 0.399 | 0.34 | 0.556 | 0.739 | 0.887 | 0.406 | 0.44 | – | 0.393 | 0.344 | 0.374 | – | 0.362 | 0.668
NCI-H2170 | – | – | – | – | 0.419 | 0.426 | 0.333 | 0.274 | 0.914 | 0.792 | 0.877 | 0.715 | 0.923 | 0.806 | 1.03 | 0.697 | 0.244 | – | 0.452 | 0.8
